From patent US20030013660A1, “Dioxolane analogs for improved inter-cellular delivery” (Shire BioChem Inc., priority 2000, published 2003)

Tests used:
hCNT1 = target: T1, hCNT1 (Homo sapiens, UniProt O00337); assay: Uptake by recombinant transporter in transiently transfected HeLa cells; assay type: in vitro ADME; conditions: 10 μM, 100 μM dilazep
T1 construct: expressed in transfected cells; host or cells: HeLa cells, transient transfection with pcDNA3-hCNT1
T1 sequence (O00337 1-649): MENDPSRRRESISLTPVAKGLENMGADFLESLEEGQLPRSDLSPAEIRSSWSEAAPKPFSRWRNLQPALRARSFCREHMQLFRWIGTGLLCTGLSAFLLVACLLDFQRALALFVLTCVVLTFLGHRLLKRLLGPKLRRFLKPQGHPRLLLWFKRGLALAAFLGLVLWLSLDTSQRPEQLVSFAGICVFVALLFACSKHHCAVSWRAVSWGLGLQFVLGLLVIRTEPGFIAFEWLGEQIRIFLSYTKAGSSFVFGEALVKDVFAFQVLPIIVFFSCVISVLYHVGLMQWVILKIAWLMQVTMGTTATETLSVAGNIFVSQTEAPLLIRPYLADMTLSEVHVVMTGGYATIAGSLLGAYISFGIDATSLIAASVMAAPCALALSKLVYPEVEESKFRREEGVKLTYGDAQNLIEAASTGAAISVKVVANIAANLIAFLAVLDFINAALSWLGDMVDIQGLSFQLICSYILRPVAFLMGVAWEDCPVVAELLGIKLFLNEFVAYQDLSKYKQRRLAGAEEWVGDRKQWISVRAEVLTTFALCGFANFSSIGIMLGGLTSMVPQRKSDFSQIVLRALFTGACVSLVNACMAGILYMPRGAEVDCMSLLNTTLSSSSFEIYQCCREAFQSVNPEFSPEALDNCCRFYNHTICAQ
Method: Transport assays were conducted in the presence of the equilibrative transport inhibitor, 100 μM dilazep and either in the presence ( ? ) or absence (▴) of […].sodium, and compared to HeLa cells transiently transfected with the empty vector control plasmic (▾).
Cancer Res., 56: 4187-4191.
Expression plasmids encoding recombinant hCNT1 and hCNT2 are prepared using conventional methods. […] The expression vectors are separately introduced into actively proliferating HeLa cells, following conventional methods. See, e.g., Fang et al (1996).
Recombinant hCNT1 and hCNT2 were separately introduced into HeLa cells by transient transfection of pcDNA3 plasmids containing the coding sequences of the relevant nucleoside transporter protein. […] Uptake of 10 μM [^3H]troxacitabine was not mediated either by hCNT1 or by hCNT2. Troxacitabine uptake by cib-activity (hCNT3) in differentiated HL-60 cells: […]

CEM cells = assay: CellTiter 96 cell proliferation assay (chemosensitivity), 48 h; assay type: cell-based
Method: (§1) The chemosensitivity of suspension cells lines (e.g., CEM or CEM-derivatives) is assessed using the CellTiter 96 ? proliferation assay. […] Adherent cell lines (e.g., DU145 or DU145^R) are seeded (^˜10^5 cells) in triplicate dishes, 24 h before drug exposure. Growth inhibition is determined by trypsinization and counting cells electronically.

CEM/ARAC8C cells = assay: as above; assay type: cell-based; conditions: read-out: EC50 (50% of the dose response curve); CEM/ARAC8C cells, 48 h exposure
Method: as §1

CEM/dCK cells = assay: as above; assay type: cell-based; conditions: read-out: EC50 (50% of the dose response curve), 48 h exposure
Method: as §1

hENT2 = target: T2, hENT2 (Homo sapiens, UniProt Q14542)
T2 sequence (Q14542 1-456): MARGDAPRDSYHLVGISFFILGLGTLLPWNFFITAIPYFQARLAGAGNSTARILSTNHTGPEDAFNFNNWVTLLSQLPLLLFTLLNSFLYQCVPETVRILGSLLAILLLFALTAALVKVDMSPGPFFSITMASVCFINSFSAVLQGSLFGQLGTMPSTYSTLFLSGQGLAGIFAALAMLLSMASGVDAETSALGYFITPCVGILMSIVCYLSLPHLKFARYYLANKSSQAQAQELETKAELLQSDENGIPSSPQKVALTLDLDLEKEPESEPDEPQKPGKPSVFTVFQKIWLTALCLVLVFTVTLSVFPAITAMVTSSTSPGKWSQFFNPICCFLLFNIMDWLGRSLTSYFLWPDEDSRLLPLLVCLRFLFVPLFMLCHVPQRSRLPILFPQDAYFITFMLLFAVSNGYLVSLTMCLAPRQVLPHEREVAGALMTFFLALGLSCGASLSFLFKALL
Method: B.Uptake of [^3H]troxacitabine either in the absence ( ? ) or presence of 100 nM NBMPR (▴), 100 μM dilazep (▾), 1 mM non-radioactive troxacitabine (♦) or 20 μM dipyridamole (●), using an expanded scale of 0-15 pmol/10^6 cells. Each data point represents the mean (±standard deviation) of three determinations.
Briefly, for adherent cells, uptake assays are conducted at room temperature under zero-trans conditions in either sodium-containing transport buffer (20 mM Tris/HCl, 3 mM K2HPO4, 1 mM MgCl2.6H2O, 2 mM CaCl2, 5 mM glucose and 130 mM NaCl, pH 7.4, 300±15 mOsm) or sodium-free transport buffer with NaCl replaced by N-methyl-D-glucamine. […] After the plates are drained, the cells are lysed with 5% Triton X-100 and mixed with Ecolite scintillation fluid to measure the cell-associated radioactivity (Beckman LS 6500 scintillation counter; Beckman-Coulter Canada, Mississauga, ON). Uptake at the zero time-point is determined by treating cells for 10 min at 4° C. with transport buffer containing 100 μM dilazep, then adding the radioactive nucleoside for 2 s before reaction termination as described above. […] Uptake at the zero time-point is determined by adding cells to cold transport buffer containing radiolabeled permeant and dilazep, and immediate centrifugation. Cell pellets are lysed and cell-associated radioactivity measured. […]

SMILES: Nc1ccn([C@@H]2CO[C@H](CO)O2)c(=O)n1 [Troxacitabine, troxacitabine]
- uptake mediated by hCNT1 (hCNT1): not mediated
- EC50 (CEM cells; Homo sapiens, CCRF-CEM, read-out: EC50 (50% of the dose response curve), CEM cells, 48 h exposure): 160 nM
- effect of the es transport inhibitor NBMPR on resistance of CEM cells (CEM cells; presence of NBMPR): not
- EC50 (CEM/ARAC8C cells): 1180 nM
- EC50 (CEM/dCK cells): > 100000 nM
- inhibition of uptake by NBMPR, dilazep, dipyridamole or excess non-radioactive troxacitabine (hENT2): no substantial inhibition
